The target of one experiment is T1, A1 receptors (Rattus norvegicus, UniProt P25099).
T1 sequence (P25099 1-326): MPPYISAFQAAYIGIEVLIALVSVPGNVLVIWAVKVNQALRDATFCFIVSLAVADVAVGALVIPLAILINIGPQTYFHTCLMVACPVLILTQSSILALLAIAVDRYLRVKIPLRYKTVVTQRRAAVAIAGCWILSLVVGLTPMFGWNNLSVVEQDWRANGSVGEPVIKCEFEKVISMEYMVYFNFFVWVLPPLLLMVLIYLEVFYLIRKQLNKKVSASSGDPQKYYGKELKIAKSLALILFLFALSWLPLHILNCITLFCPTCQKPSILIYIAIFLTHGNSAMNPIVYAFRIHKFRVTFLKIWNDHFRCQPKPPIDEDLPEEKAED
The experiment can be described thus: biochemical. Format: binding. Particulars: for Ki: rat brain membranes, read-out: Ki rA1.

Another experiment concerns the target T2, A2a receptors (Rattus norvegicus, UniProt P30543).
T2 construct: Displacement of specific [^3 H]; from tissue; host or cells: rat striatal membranes
The experiment can be described thus: radioligand binding, displacement of specific [3H]CGS 21680 binding in rat striatal membranes. Particulars: for Ki: [3H]CGS 21680, rat striatal membranes.

The target in the next experiment is T3, human A3 receptors (Homo sapiens, UniProt P0DMS8).
T3 construct: expressed in transfected cells; host or cells: HEK-293 cells (membranes)
T3 sequence (P0DMS8 1-318): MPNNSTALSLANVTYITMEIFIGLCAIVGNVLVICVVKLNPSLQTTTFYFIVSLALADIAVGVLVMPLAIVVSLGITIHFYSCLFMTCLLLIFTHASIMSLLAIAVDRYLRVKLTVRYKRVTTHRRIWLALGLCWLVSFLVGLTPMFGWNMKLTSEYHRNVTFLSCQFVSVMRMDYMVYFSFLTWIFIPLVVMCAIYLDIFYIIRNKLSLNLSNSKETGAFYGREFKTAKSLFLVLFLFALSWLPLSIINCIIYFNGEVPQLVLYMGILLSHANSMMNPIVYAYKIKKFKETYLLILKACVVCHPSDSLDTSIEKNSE
The experiment can be described thus: radioligand binding, displacement of specific [125I]AB-MECA binding at human A3 receptors expressed in HEK-293 cells. Particulars: for Ki: [125I]AB-MECA, read-out: Ki hA3.

The next experiment deals with T4, rat A3 receptor (Rattus norvegicus, UniProt P28647).
T4 construct: expressed in transfected cells; host or cells: CHO cells (membranes)
T4 sequence (P28647 1-320): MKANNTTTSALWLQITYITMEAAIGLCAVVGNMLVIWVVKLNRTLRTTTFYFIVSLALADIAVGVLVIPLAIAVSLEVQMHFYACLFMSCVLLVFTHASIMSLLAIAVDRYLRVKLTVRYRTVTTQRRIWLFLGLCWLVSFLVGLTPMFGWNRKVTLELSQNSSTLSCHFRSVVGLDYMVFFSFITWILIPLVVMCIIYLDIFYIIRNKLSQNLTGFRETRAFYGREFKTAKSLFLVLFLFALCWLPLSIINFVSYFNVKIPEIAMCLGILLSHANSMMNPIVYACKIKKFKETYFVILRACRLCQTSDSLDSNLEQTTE
The experiment can be described thus: A3-agonist-elicited inhibition of adenylyl cyclase in membranes from CHO cells stably expressing the rat A3 receptor. Format: biochemical. Particulars: compound 50 μM, 1 μM forskolin.

Experiment [1] concerns bak protein in HL-60 cells. The experiment can be described thus: expression of apoptosis-inducing protein bak by immunofluorescence, HL-60 cells. Particulars: 10 nM. Format: cell-based. The method, then: (§1) Cells were fixed as following steps: 10 min with 1% formalin in PBS, 5 min with […] methanol and 2 min with ice cold acetone, then permebilized with 0.1% Nonidet P-40 for 20 min. After the preparation, the specimens were incubated step by step: 10% goat serum in PBS for 20 min, mouse monoclonal anti-bak antibody (5 μg/ml PBS-BSA) for 60 min, Rhodamine (TRITC)-conjugated AffiniPure Goat Anti-mouse IgG (H+L) in PBS-BSA for 60 min. The specimens were washed 3-5 times with PBS after every step. The glass slides were stored at 4° C. in the dark.
(§2) The mechanism of the apoptosis observed in response to either A3 agonists was investigated.

The subject of experiment [2] is bak protein in U-937 cells. The experiment in a line: expression of apoptosis-inducing protein bak by immunofluorescence, U-937 cells. It counts as cell-based. Particulars: 10 nM. The method, then: as §1, §2
Setting [3] is: IB-MECA 10^-6 M, read-out: % Inhibition of adenylyl cyclase, IB-MECA (10^-6 M).
[4] abbreviates: IB-MECA 10^-7 M, read-out: % Inhibition of adenylyl cyclase, IB-MECA (10^-7 M).

SMILES strings stand for the structures. Where two headings read alike, the source gives them in different places. A value given as a limit tells only on which side of the number the result lay.

Usually Ki stands for a dissociation constant, usually derived from enzyme kinetics or from competition with a known ligand.

T2 sequence (P30543 whole entry): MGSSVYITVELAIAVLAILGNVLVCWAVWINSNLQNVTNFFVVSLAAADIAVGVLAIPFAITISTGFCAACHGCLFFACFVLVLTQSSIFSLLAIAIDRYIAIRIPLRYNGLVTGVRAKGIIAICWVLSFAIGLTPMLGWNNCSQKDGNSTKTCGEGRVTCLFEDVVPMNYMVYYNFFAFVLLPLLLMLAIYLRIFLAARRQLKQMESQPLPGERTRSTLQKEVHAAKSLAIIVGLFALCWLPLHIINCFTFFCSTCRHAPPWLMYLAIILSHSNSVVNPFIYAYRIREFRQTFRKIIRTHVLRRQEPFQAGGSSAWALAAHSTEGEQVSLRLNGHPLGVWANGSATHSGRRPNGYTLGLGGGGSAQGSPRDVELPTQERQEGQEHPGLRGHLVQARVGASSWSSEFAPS
Experimental for A1 receptors: ^a Displacement of specific [^3 H] PIA binding in rat brain
percentage of specific binding displaced at 100 μM.
Experimental for A2a receptors: ^b Displacement of specific [^3 H]
or as a percentage of specific binding displaced at 100 μM.
Experimental for human A3 receptors: A3 receptors expressed in HEK293 cells, in membranes, expressed as
binding displaced at 100 μM.
Experimental for rat A3 receptor: ^a Assayed in membranes from CHO cells stably expressing the rat
A3 receptor in the presence of 1 μM forskolin.

On to `COc1ccc2c(c1)C(=O)[C@H](O)[C@@H](/C=C/c1ccccc1)O2` (relative stereo) [Compound 15], for which the inhibition at 100 µM at A1 receptors (Table 4, 10^-4 M, read-out: displacement of specific binding rA1) was under 10%; on A2a receptors (Table 4, 10^-4 M, read-out: displacement of specific binding rA2a), under 10%. The molecule also showed a rA1/hA3 at human A3 receptors of over 8. In addition, the inhibition constant (Ki) at human A3 receptors (Table 4, HEK-293 membranes) stood at 21100 nM. Also, the values for the inhibition at 50 µM at rat A3 receptor (setting [3]) and at rat A3 receptor (setting [4]) were 39.2 ± 3% and 25.9 ± 2.4%, respectively.
With `O=c1c(O)c(-c2ccccc2)oc2cc(O)cc(O)c12` [Compound 1, galangin, reference compound], the Ki was found to be 863 ± 92 nM at A1 receptors (Table 3, [3H]PIA) and 966 ± 164 nM on A2a receptors (Table 3, read-out: Ki rA2a). The inhibition at 50 µM on rat A3 receptor (setting [3]) was 35.3 ± 7.2%; on rat A3 receptor (setting [4]), 23.7 ± 5.1%.
`CCOc1cc(OCC)c2c(=O)c(OCC)c(-c3ccccc3)oc2c1` [Compound 3a, 3,5,7-Triethoxyflavone]: the inhibition constant Ki on A1 receptors (Table 3, [3H]PIA) was 603 nM; on A2a receptors (Table 3, read-out: Ki rA2a), 3310 nM. The inhibition at 50 µM was 19.1 ± 7.4% on rat A3 receptor (setting [3]) and 2.2 ± 2.2% at rat A3 receptor (setting [4]).
Regarding `CCOc1c2ccoc2cc2oc(/C=C/c3ccccc3)cc(=O)c12` [Compound 20, 4-ethyloxy-7-trans-styryl-visnagin], the Ki at A1 receptors (Table 5, [3H]PIA) stood at 35600 ± 12700 nM; on A2a receptors (Table 5, read-out: Ki rA2a), 33800 ± 14800 nM. Further, the inhibition at 50 µM at rat A3 receptor (setting [3]) stood at 40.9 ± 3.7%; on rat A3 receptor (setting [4]) it was 21.2 ± 3.9%.
`CCCC(=O)Nc1nc2ccc(Cl)cc2c2nc(-c3ccco3)nn12` [Compound 147, 5-Butyrylamino-9-chloro-2-(2-furyl)[1,2,4]triazolo[1,5-c]quinazoline]: the Ki came to 32.5 ± 9.4 nM at A1 receptors (Table 15, [3H]PIA); 4 nM on A2a receptors (Table 15, read-out: Ki rA2A); 14.6 ± 2.8 nM at human A3 receptors (Table 15, HEK membranes). This molecule also yielded a rA1/hA3 at human A3 receptors of 2.2.
Take `CCCCC(=O)Nc1nc2ccc(Cl)cc2c2nc(-c3ccco3)nn12` [Compound 148, 9-Chloro-2-(2-furyl)-5-pentanoylamino[1,2,4]triazolo[1,5-c]quinazoline]: the inhibition constant (Ki) at A1 receptors (Table 15, [3H]PIA) was found to be 28.9 ± 3.7 nM; on A2a receptors (Table 15, read-out: Ki rA2A) it was 16 nM; on human A3 receptors (Table 15, HEK membranes), 21.5 ± 6.2 nM. Also, at human A3 receptors (Table 15, ratio of Ki), the rA1/hA3 is listed as 1.3.
In the same order, the values of `CC(C)(C)C(=O)Nc1nc2ccc(Cl)cc2c2nc(-c3ccco3)nn12` [Compound 149, 9-Chloro-2-(2-furyl)-5-trimethylacetylamino[1,2,4]triazolo [1,5-c]quinazoline] are 205 ± 20 nM, 60 nM, 244 ± 6 nM and 0.84.
Take `O=C(Nc1nc2ccc(Cl)cc2c2nc(-c3ccco3)nn12)c1ccccc1` [Compound 151, 5-Benzoylamino-9-chloro-2-(2-furyl)[1,2,4]triazolo[1,5-c]quinazoline]: the inhibition constant Ki amounted to 665 ± 82 nM on A1 receptors (Table 15, [3H]PIA); 349 ± 42 nM on A2a receptors (Table 15, read-out: Ki rA2A); 4.05 ± 1.39 nM on human A3 receptors (Table 15, HEK membranes). Also, the rA1/hA3 on human A3 receptors (Table 15, ratio of Ki) was determined as 164. For the same molecule, at human A3 receptors (Table 15, ratio of Ki), the rA2A/hA1 was 86.
Consider `O=C(Cc1ccccc1)Nc1nc2ccc(Cl)cc2c2nc(-c3ccco3)nn12` [Compound 153, 9-Chloro-2-(2-furyl)-5-phenylacetylamino[1,2,4]triazolo [1,5-c]quinazoline], for which the inhibition constant (Ki) at A1 receptors (Table 15, [3H]PIA) was found to be 305 ± 51 nM; at A2a receptors (Table 15, read-out: Ki rA2A), 52 ± 8.8 nM. In experiment [1], the “expression of bak protein, HL-60” value is reported as “induced”. In addition, in experiment [2], the “expression of bak protein, U-937” value is on record as “induced”.
On to `CC(C)(C)OC(=O)NCCCC(=O)Nc1nc2ccc(Cl)cc2c2nc(-c3ccco3)nn12` [Compound 154], for which the Ki on A1 receptors (Table 15, [3H]PIA) was determined as 91.3 ± 13.2 nM; on A2a receptors (Table 15, read-out: Ki rA2A), 173 nM; at human A3 receptors (Table 15, HEK membranes), 32 nM.
The like results for `NCCCC(=O)Nc1nc2ccc(Cl)cc2c2nc(-c3ccco3)nn12` [Compound 155] were, in that order, 11.3 ± 2.4 nM, 14 nM and 15.2 ± 6.6 nM.
The like results for `O=C(Nc1nc2ccc(Cl)cc2c2nc(-c3ccc(Br)o3)nn12)c1ccccc1` [Compound 156] were, in that order, over 1000 nM, over 1000 nM and 856 ± 156 nM.
In the same order, the values of `O=c1[nH]c2ccc(Cl)cc2c2nc(-c3ccco3)nn12` [Compound 158, 9-Chloro-2-(2-furyl)[1,2,4]triazolo[1,5-c]quinazolin-5-(6H)-one] are 3000 nM, 4000 nM and 260 ± 87 nM.
Take `O=C(C=Cc1ccccc1)Nc1nc2ccc(Cl)cc2c2nc(-c3ccco3)nn12` [Compound 161]: the Ki at A1 receptors (Table 16, [3H]R-PIA) turned out to be 282 ± 71 nM; on A2a receptors (Table 16, read-out: Ki rA2A), 59.8 ± 13.4 nM; on human A3 receptors (Table 16, HEK membranes) it was 60 ± 6.3 nM.

The values are drawn from patent publication US6066642A, “Dihydropyridine-, pyridine-, benzopyran-4-one- and triazoloquinazoline derivative, their preparation and their use as adenosine receptor antagonists” (priority 1998, dated 2000).
